Reference: patent US9757378B2, “Methods to modulate acute myeloid leukemia stem/progenitor cell expansion and/or differentiation” (UNIVERSITE DE MONTREAL, priority 2013, dated 2017)
Counter-ions that a name gives are not always drawn.

Key:
primary human AML cells [1] = experiment: Secondary screen: dose response, five serial dilutions (CD34/CD15 flow cytometry); assay type: cell-based; set-up: key to 2ndary screen criteria fulfilled: 0 = no; 1 = yes; conditions: for % increase CD34+CD15− (%) 2ndary screen / % increase CD34+CD15− (cell counts) 2ndary screen: at optimal concentration, compared to DMSO; for 2ndary screen criteria fulfilled: ≧50% increase CD34+CD15− (%) and cell counts and ≧50% gated cells in at least one dose
Method: In the primary screen cells were plated in transparent 384-wellplates (Greiner, 781182) at a density of 5,000 cells in 50 μl final volume per well. Compounds were tested at 2 μM (commercial libraries) or 1 μg/ml (Medicinal Chemistry Facility, IRIC). […] For validation experiments AML cells were grown in 384-well plates with 3-8 replicates per condition.
Flow cytometry was performed on an LSR™ II cytometer equipped with an HTS-device (BD Bioscience, Primary and Secondary screens and in vitro validation experiments) or on a BD Canto™ II cytometer (BD Bioscience, Xenotransplantation and CellTrace Violet™ experiments). Cells were stained for 30 minutes at 4° C. protected from light if not otherwise indicated (CellTrace Violet™ staining). The following flow cytometry-antibodies were used: CD45 Pacific Blue (BioLegend 304029), CD33 PE (BD Bioscience 555450), CD34 APC (BD Bioscience 555824), CD3 FITC (BD Bioscience 555332), CD19 PE-Cy7 (BD Bioscience 557835), CD15 PE (BD Bioscience 555401), and anti-mouse CD45.1 APC-efluor 730 (eBioscience 47-0453-82). CD34 intensities in flow cytometry plots were set at high levels on day 0 to allow tracing of non-predictable decreases of intensities during 7 days in culture.

primary human AML cells [2] = experiment: Primary screen: differentiation of primary human AML cells in vitro (CD34/CD15, HTS flow cytometry); conditions: for % increase CD34+ (%) / % increase CD34+ (cell counts) / % increase CD34+CD15− (cell counts): compared to DMSO; for % increase CD34+CD15− (%): compared to DMSO ((compound − DMSO)/DMSO*100); for percent gated cells (viability): 2 μM (commercial libraries) or 1 μg/ml (IRIC)
Method: AML cells were thawed in 37° C. water bath and 1:10 diluted in prewarmed Iscove's modified Dulbecco's medium (IMDM) containing 20% FBS and DNase 100 μg/ml. […] When compounds were added to the culture medium, final DMSO concentrations were 0.1% in all in vitro experiments and 0.01% when cultured cells were transplanted into NSG-mice.
Compounds were tested at 2 μM (commercial libraries) or 1 μg/ml (Medicinal Chemistry Facility, IRIC). […] For validation experiments AML cells were grown in 384-well plates with 3-8 replicates per condition.
Flow cytometry was performed on an LSR™ II cytometer equipped with an HTS-device (BD Bioscience, Primary and Secondary screens and in vitro validation experiments) or on a BD Canto™ II cytometer (BD Bioscience, Xenotransplantation and CellTrace Violet™ experiments). Cells were stained for 30 minutes at 4° C. protected from light if not otherwise indicated (CellTrace Violet™ staining). […] CD34 intensities in flow cytometry plots were set at high levels on day 0 to allow tracing of non-predictable decreases of intensities during 7 days in culture.

| Molecule | % increase CD34+CD15− (%) 2ndary screen (primary human AML cells [1]) [%] | % increase CD34+CD15− (cell counts) 2ndary screen (primary human AML cells [1]) [%] | 2ndary screen criteria fulfilled (primary human AML cells [1]) | % increase CD34+ (%) (primary human AML cells [2]) | % increase CD34+ (cell counts) (primary human AML cells [2]) [%] | % increase CD34+CD15− (cell counts) (primary human AML cells [2]) [%] | % increase CD34+CD15− (%) (primary human AML cells [2]) | percent gated cells (viability) (primary human AML cells [2]) [%] |
| --- | --- | --- | --- | --- | --- | --- | --- | --- |
| O=C(Nc1ccc2c(c1)OCCO2)c1sc2ccccc2c1Cl [UM0045609, 3-chloro-N-(2,3-dihydro-1,4-benzodioxin-6-yl)-1-benzithiophene-2-carboxamide] | 204.83 | 198.60 | 1 | 46.63 | 56.89 | 109.14 | 94.85 | – |
| O=c1c2ccccc2oc2ccccc12 [UM0120986, Xanthone] | – | – | 0 | 34.82 | 28.81 | 86.26 | 94.85 | 81.40 |
| COc1cc(-c2oc3cc(O)cc(O)c3c(=O)c2O)ccc1O [UM0119319, Isorhamnetine] | – | – | 0 | 37.41 | 28.67 | 62.94 | 74.28 | – |
| CO[C@H]1C[C@@H]2CC[C@@H](C)[C@@](O)(O2)C(=O)C(=O)N2CCCC[C@H]2C(=O)O[C@H]([C@H](C)C[C@@H]2CC[C@@H](O)[C@H](OC)C2)CC(=O)[C@H](C)/C=C(\C)[C@@H](O)[C@@H](OC)C(=O)[C@H](C)C[C@H](C)/C=C/C=C/C=C/1C [UM0119219, Rapamycin] | – | – | 0 | 27.40 | −57.86 | −44.01 | 68.93 | 72.30 |
| COc1c(O)cc2oc(-c3ccc(O)c(O)c3)cc(=O)c2c1O [UM0119305, 6-Methoxyluteolin] | – | – | 0 | 31.39 | −2.77 | 40.01 | 88.83 | 83.60 |
| O[C@H]1[C@H]2[C@H](O)CCCN2C[C@H]1O [UM0119223, Swainsonine] | – | – | 0 | 30.00 | −43.81 | −22.20 | 79.57 | 81.90 |
| Benzalkonium chloride [UM0120664] | – | – | 0 | 45.92 | −73.74 | −57.89 | 133.07 | – |
| C[C@]12CC[C@H](O)C[C@H]1CC[C@@H]1[C@@H]2CC[C@]2(C)[C@@H](C3=CC(=O)OC3)[C@@H](O)C[C@]12O [UM0119342, Gitoxigenin] | – | – | 0 | 48.71 | −44.85 | −40.00 | 62.33 | 77.10 |
| O=c1c(O)c(-c2ccc(O)cc2)oc2cc(O)cc(O)c12 [UM0118952, Kaempferol] | – | – | 0 | 26.34 | −2.29 | 44.57 | 87.18 | 78.90 |
| COc1cccc2oc(-c3ccccc3)cc(=O)c12 [UM0113898, 5-Methoxyflavone] | 105.80 | 119.91 | 1 | 36.28 | 20.92 | 61.47 | 82.42 | – |
| CCCCCCC(=O)CCCCCC/C=C/C[C@@H](O)[C@H](O)[C@@](N)(CO)C(=O)O [UM0119199, Myriocin] | – | – | 0 | 1.19 | −36.05 | 9.44 | 72.63 | 79.90 |
| COc1ccc(-c2oc3cc(O)cc(O)c3c(=O)c2O)cc1 [UM0119298, Kaempferide] | 105.80 | 114.93 | 1 | 42.31 | 25.55 | 75.15 | 98.71 | 82.40 |
| COc1ccc(-c2coc3c(O)c(OC)ccc3c2=O)cc1 [UM0121179, Retusin 7-Methylether] | 218.84 | 199.22 | 1 | 58.87 | 59.80 | 125.38 | 124.10 | 82.10 |
| COc1ccc(-c2cc(=O)c3c(O)cc(O)cc3o2)cc1O [UM0119400, Diosmetine] | – | – | 0 | 31.48 | −19.72 | 20.75 | 97.56 | – |
| O=c1cc(-c2ccccc2)oc2cc(O)cc(O)c12 [UM0118950, Chrysin] | 194.69 | 172.16 | 1 | 47.05 | 48.57 | 108.30 | 105.68 | – |
| C[C@@H]1Cc2c(Cl)cc(C(=O)N[C@@H](Cc3ccccc3)C(=O)O)c(O)c2C(=O)O1 [UM0119328, Ochratoxin A] | – | – | 0 | 14.82 | 1.28 | 34.37 | 52.56 | 82.10 |
| CCOC(=O)c1c(C)cc(O)c(C)c1O [UM0120789, Methylorsellinic acid ethyl ester] | – | – | – | 22.49 | 22.38 | 52.88 | 52.70 | 84.00 |
| C[C@@H]1O[C@@H](O[C@H]2[C@H](Oc3cc(O)c4c(=O)c(O)c(-c5ccc(O)cc5)oc4c3)O[C@H](CO)[C@@H](O)[C@@H]2O)[C@H](O)[C@H](O)[C@H]1O [UM0119289, Kaempferol-7-Neohesperidoside] | – | – | – | 12.75 | 29.49 | 72.47 | 50.39 | – |
| N[C@@H]1C[C@H]1c1ccccc1 [UM0118428, Tranylcypromine hydrochloride] | – | – | 0 | 49.50 | −11.95 | −10.11 | 52.70 | 77.80 |
| COc1cc(-c2ccc(N=Nc3ccc4c(S(=O)(=O)[O-])cc(S(=O)(=O)[O-])c(N)c4c3O)c(OC)c2)ccc1N=Nc1ccc2c(S(=O)(=O)[O-])cc(S(=O)(=O)[O-])c(N)c2c1O.[Na+].[Na+].[Na+].[Na+] [UM0118703, Chicago sky blue 6B] | – | – | – | 42.39 | 31.67 | 42.76 | 54.52 | – |
